Measured values from US20120214760A1, “TREATMENT OF URINARY TRACT INFECTIONS WITH ANTIBACTERIAL AMINOGLYCOSIDE COMPOUNDS” (Achaogen, Inc., priority 2009, published 2012).
In brackets after ≈: the same amount, converted by molar mass.

Tests used:
[1] = tested on: E. coli ATCC 25922 (AECO001); test: MIC, CLSI broth microdilution; format: cell-based; conditions: Escherichia coli, ATCC25922, read-out: MIC AECO001, Table 1; AECO001 is ATCC25922
Description: (§1) Minimum inhibitory concentrations (MIC) were determined by reference Clinical and Laboratory Standards Institute (CLSI) broth microdilution methods per M7-A7 [2006]. Quality control ranges utilizing E. coli ATCC 25922, P. aeruginosa ATCC 27853 and S. aureus ATCC 29213, and interpretive criteria for comparator agents were as published in CLSI M100-S17 [2007]. Briefly, serial two-fold dilutions of the test compounds were prepared at 2× concentration in Mueller Hinton Broth. The compound dilutions were mixed in 96-well assay plates in a 1:1 ratio with bacterial inoculum. The inoculum was prepared by suspension of a colony from an agar plate that was prepared the previous day. Bacteria were suspended in sterile saline and added to each assay plate to obtain a final concentration of 5×10^5 CFU/mL. The plates were incubated at 35° C. for 20 hours in ambient air.

[2] = tested on: P. aeruginosa ATCC 27853 (APAE001); test: MIC, CLSI broth microdilution; format: cell-based; conditions: APAE001 is ATCC27853; for MIC: Pseudomonas aeruginosa, ATCC27853, read-out: MIC APAE001, Table 1
Description: as §1

| SMILES | MIC [1] [µg/mL] | MIC [2] [µg/mL] | MIC APAE001 ([2]; Table 1) |
| --- | --- | --- | --- |
| CN[C@@H]1[C@@H](O)[C@@H](O[C@@H]2[C@@H](O)[C@H](O[C@H]3OC(CNCC4(O)CC(N)C4)=CC[C@H]3N)[C@@H](N)C[C@H]2NC(=O)C2(O)CNC2)OC[C@]1(C)O (stereo partly shown) [Example 47] | 1 to 16 (≈ 1.55 to 24.8 µM) | 1 to 16 (≈ 1.55 to 24.8 µM) |  |
| CN[C@@H]1[C@@H](O)[C@@H](O[C@@H]2[C@@H](O)[C@H](O[C@H]3OC(CNCC(O)CCN)=CC[C@H]3N)[C@@H](N)C[C@H]2NC(=O)C2(O)CCNC2)OC[C@]1(C)O (stereo partly shown) [Example 35] | < 1 | 1 to 16 (≈ 1.54 to 24.7 µM) |  |
| CNCC(=O)N[C@@H]1CC=C(CN)O[C@@H]1O[C@H]1[C@H](O)[C@@H](O[C@H]2OC[C@](C)(O)[C@H](NC)[C@H]2O)[C@H](NC(=O)[C@@H](O)CCN)C[C@@H]1N [Example 86, 2′-(N-Methyl-amino-acetyl)-1-(4-amino-2(S)-hydroxy-butyryl)-sisomicin] | 1 to 16 (≈ 1.61 to 25.8 µM) | 1 to 16 (≈ 1.61 to 25.8 µM) |  |
| CN[C@@H]1[C@@H](O)[C@@H](O[C@@H]2[C@@H](O)[C@H](O[C@H]3OC(CNCC4CNC4)=CC[C@H]3N)[C@@H](N)C[C@H]2NC(=O)[C@@H](O)CN)OC[C@]1(C)O [Example 73, 6′-(Methyl-azetidin-3-yl)-1-(3-amino-2(S)-hydroxy-propionyl)-sisomicin] | 1 to 16 (≈ 1.66 to 26.5 µM) | 1 to 16 (≈ 1.66 to 26.5 µM) |  |
| CN[C@@H]1[C@@H](O)[C@@H](O[C@@H]2[C@@H](O)[C@H](O[C@H]3OC(CNCCO)=CC[C@H]3N)[C@@H](N)C[C@H]2NS(=O)(=O)CCN)OC[C@]1(C)O [Example 29, 6′-(2-Hydroxy-ethyl)-1-(2-amino-ethylsulfonamide)-sisomicin] | 1 to 16 (≈ 1.67 to 26.7 µM) | > 16 |  |
| CN[C@@H]1[C@@H](O)[C@@H](O[C@@H]2[C@@H](O)[C@H](O[C@H]3OC(CNCCCC(O)CN)=CC[C@H]3N)[C@@H](N)C[C@H]2NC(=O)[C@@H](O)CN)OC[C@]1(C)O (stereo partly drawn) [Example 80, 6′-(4-Hydroxy-5-amino-pentyl)-1-(3-amino-2(S)-hydroxy-propionyl)-sisomicin] | < 1 | < 1 |  |
| CN[C@@H]1[C@@H](O)[C@@H](O[C@@H]2[C@@H](O)[C@H](O[C@H]3OC(CN)=CC[C@H]3NCC(N)CO)[C@@H](N)C[C@H]2NC(=O)[C@@H](O)CCN)OC[C@]1(C)O (stereo partly drawn) [Example 97, 2′-(2-Amino-propanol)-1-(4-amino-2(S)-hydroxy-butyryl)-sisomicin] | < 1 |  | B (MIC's of greater than 1.0 μg/mL to 16.0 μg/mL = B) |
| CN[C@@H]1[C@@H](O)[C@@H](O[C@@H]2[C@@H](O)[C@H](O[C@H]3OC(CNCCO)=CC[C@H]3N)[C@@H](N)C[C@H]2NC(=O)[C@H](O)CCN)OC[C@]1(C)O [Example 2, 6′-(2-Hydroxy-ethyl)-1-(4-amino-2(R)-hydroxy-butyryl)-sisomicin] | 1 to 16 (≈ 1.69 to 27 µM) | 1 to 16 (≈ 1.69 to 27 µM) |  |
| CN[C@@H]1[C@@H](O)[C@@H](O[C@@H]2[C@@H](O)[C@H](O[C@H]3OC(CNCCO)=CC[C@H]3N)[C@@H](N)C[C@H]2NC(=O)CO)OC[C@]1(C)O [Example 25, 6′-(2-Hydroxy-ethyl)-1-(2-hydroxy-acetyl)-sisomicin] | 1 to 16 (≈ 1.82 to 29.1 µM) | 1 to 16 (≈ 1.82 to 29.1 µM) |  |
| CN[C@@H]1[C@@H](O)[C@@H](O[C@@H]2[C@@H](O)[C@H](O[C@H]3OC(CN)=CC[C@H]3NC(=O)CN)[C@@H](N)C[C@H]2NC(=O)[C@@H](O)CCN)OC[C@]1(C)O [Example 87, 2′-(2-Amino-acetyl)-1-(4-amino-2(S)-hydroxy-butyryl)-sisomicin] | 1 to 16 (≈ 1.65 to 26.4 µM) | 1 to 16 (≈ 1.65 to 26.4 µM) |  |
| CN[C@@H]1[C@@H](O)[C@@H](O[C@@H]2[C@@H](O)[C@H](O[C@H]3OC(CN)=CC[C@H]3NC(=O)C(C)N)[C@@H](N)C[C@H]2NC(=O)[C@@H](O)CCN)OC[C@]1(C)O (stereo partly drawn) [Example 88, 2′-(2-Amino-propionyl)-1-(4-amino-2(S)-hydroxy-butyryl)-sisomicin] | 1 to 16 (≈ 1.61 to 25.8 µM) | 1 to 16 (≈ 1.61 to 25.8 µM) |  |
| CN[C@@H]1[C@@H](O)[C@@H](O[C@@H]2[C@@H](O)[C@H](O[C@H]3OC(CNC[C@H]4C[C@H](O)CN4)=CC[C@H]3N)[C@@H](N)C[C@H]2NC(=O)[C@@H](O)CN)OC[C@]1(C)O [Example 53, 6′-(Methyl-4(S)-hydroxy-pyrrolidin-2(R)-yl)-1-(3-amino-2(S)-hydroxy-propionyl)-sisomicin] | 1 to 16 (≈ 1.58 to 25.2 µM) | > 16 |  |
| CN[C@@H]1[C@@H](O)[C@@H](O[C@@H]2[C@@H](O)[C@H](O[C@H]3OC(CNCC(C)(C)CN)=CC[C@H]3N)[C@@H](N)C[C@H]2NC(=O)[C@@H](O)CN)OC[C@]1(C)O [Example 51, 6′-(2,2-Dimethyl-3-amino-propyl)-1-(3-amino-2(S)-hydroxy-propionyl)-sisomicin] | < 1 | > 16 |  |
| CN[C@@H]1[C@@H](O)[C@@H](O[C@@H]2[C@@H](O)[C@H](O[C@H]3OC(CNCC4(O)CC(N)C4)=CC[C@H]3N)[C@@H](N)C[C@H]2NC(=O)C(O)C2CNC2)OC[C@]1(C)O (stereo partly shown) [Example 83, 6′-(Methyl-3-amino-1-hydroxy-cyclobutyl)-1-(2-(azetidin-3-yl)-2-hydroxy-acetyl)-sisomicin] | 1 to 16 (≈ 1.52 to 24.3 µM) | > 16 |  |
| CN[C@@H]1[C@@H](O)[C@@H](O[C@@H]2[C@@H](O)[C@H](O[C@H]3OC(CNCCC4(O)CNC4)=CC[C@H]3N)[C@@H](N)C[C@H]2NC(=O)[C@@H](O)CN)OC[C@]1(C)O [Example 70, 6′-(Ethyl-2-(3-hydroxy-azetidin-3-yl))-1-(3-amino-2(S)-hydroxy-propionyl)-sisomicin] | 1 to 16 (≈ 1.58 to 25.2 µM) | > 16 |  |
| CN[C@@H]1[C@@H](O)[C@@H](O[C@@H]2[C@@H](O)[C@H](O[C@H]3OC(CNCC(O)CN)=CC[C@H]3N)[C@@H](N)C[C@H]2NC(=O)C2(O)CCNC2)OC[C@]1(C)O (stereo partly shown) [Example 42, 6′-(2-Hydroxy-3-amino-propyl)-1-(3-hydroxy-pyrrolidin-3-yl-acetyl)-sisomicin] | 1 to 16 (≈ 1.58 to 25.2 µM) | 1 to 16 (≈ 1.58 to 25.2 µM) |  |
| CN[C@@H]1[C@@H](O)[C@@H](O[C@@H]2[C@@H](O)[C@H](O[C@H]3OC(CNC[C@H]4C[C@@H](N)[C@@H](O)C4)=CC[C@H]3N)[C@@H](N)C[C@H]2NC(=O)[C@@H](O)CN)OC[C@]1(C)O [Example 69, 6′-(Methyl-1(R)-amino-2(S)-hydroxy-cyclopent-4(S)-yl)-1-(3-amino-2(S)-hydroxy-propionyl)-sisomicin] | < 1 | 1 to 16 (≈ 1.54 to 24.7 µM) |  |
| CN[C@@H]1[C@@H](O)[C@@H](O[C@@H]2[C@@H](O)[C@H](O[C@H]3OC(CNC[C@H]4C[C@H](N)C4)=CC[C@H]3NC(=N)N)[C@@H](N)C[C@H]2N)OC[C@]1(C)O [Example 107, 6′-(Methyl-trans-3-amino-cyclobutyl)-2′-guanidinium-sisomicin] | 1 to 16 (≈ 1.75 to 27.9 µM) | < 1 |  |
| CN[C@@H]1[C@@H](O)[C@@H](O[C@@H]2[C@@H](O)[C@H](O[C@H]3OC(CN)=CC[C@H]3NCC(O)CN)[C@@H](N)C[C@H]2NC(=O)[C@@H](O)CCN)OC[C@]1(C)O (stereo partly drawn) [Example 101, 2′-(2-Hydroxy-3-amino-propyl)-1-(4-amino-2(S)-hydroxy-butyryl)-sisomicin] | < 1 | 1 to 16 (≈ 1.61 to 25.7 µM) |  |
| CN[C@@H]1[C@@H](O)[C@@H](O[C@@H]2[C@@H](O)[C@H](O[C@H]3OC(CN)=CC[C@H]3NC[C@H]3C[C@H](N)C3)[C@@H](N)C[C@H]2NC(=O)[C@@H](O)CCN)OC[C@]1(C)O [Example 104, 2′-(Methyl-trans-3-amino-cyclobutyl)-1-(4-amino-2(S)-hydroxy-butyryl)-sisomicin] | < 1 | 1 to 16 (≈ 1.58 to 25.3 µM) |  |
